Experimental data: ChEMBL document CHEMBL5291721, “A preclinical secondary pharmacology resource illuminates target-adverse drug reaction associations of marketed drugs” (Nat Commun, 2023)

What was measured:
[1] = molecular target: T1, Gastrin/cholecystokinin type B receptor (Homo sapiens, UniProt P32239)
T1 sequence (P32239 whole entry): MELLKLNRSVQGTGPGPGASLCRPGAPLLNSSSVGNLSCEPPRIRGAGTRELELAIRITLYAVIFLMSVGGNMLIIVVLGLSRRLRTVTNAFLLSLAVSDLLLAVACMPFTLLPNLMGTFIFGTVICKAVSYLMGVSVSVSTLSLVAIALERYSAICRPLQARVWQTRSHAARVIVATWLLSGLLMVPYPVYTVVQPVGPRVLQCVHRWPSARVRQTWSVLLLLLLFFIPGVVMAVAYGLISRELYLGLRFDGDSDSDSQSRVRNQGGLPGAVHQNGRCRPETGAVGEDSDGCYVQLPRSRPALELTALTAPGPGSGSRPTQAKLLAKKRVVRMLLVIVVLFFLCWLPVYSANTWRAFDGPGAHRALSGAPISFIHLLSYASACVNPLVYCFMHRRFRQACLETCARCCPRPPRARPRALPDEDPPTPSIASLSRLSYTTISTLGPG

[2] = molecular target: T2, 5-hydroxytryptamine receptor 3A (Homo sapiens, UniProt P46098); type: functional
T2 sequence (P46098 whole entry): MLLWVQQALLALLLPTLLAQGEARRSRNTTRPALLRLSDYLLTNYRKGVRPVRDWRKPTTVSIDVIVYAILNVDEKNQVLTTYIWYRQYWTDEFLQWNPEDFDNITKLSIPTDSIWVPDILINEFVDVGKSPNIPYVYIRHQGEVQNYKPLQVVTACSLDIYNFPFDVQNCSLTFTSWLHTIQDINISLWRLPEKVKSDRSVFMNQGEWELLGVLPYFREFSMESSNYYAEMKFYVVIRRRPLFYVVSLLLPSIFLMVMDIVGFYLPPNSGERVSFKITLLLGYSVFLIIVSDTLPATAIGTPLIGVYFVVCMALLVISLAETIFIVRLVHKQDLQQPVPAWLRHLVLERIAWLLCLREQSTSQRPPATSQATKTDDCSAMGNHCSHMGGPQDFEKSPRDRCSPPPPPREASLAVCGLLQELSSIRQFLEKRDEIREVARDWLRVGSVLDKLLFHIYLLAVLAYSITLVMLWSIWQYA

Progesterone receptor = molecular target: T3, Progesterone receptor (Homo sapiens, UniProt P06401)
T3 sequence (P06401 whole entry): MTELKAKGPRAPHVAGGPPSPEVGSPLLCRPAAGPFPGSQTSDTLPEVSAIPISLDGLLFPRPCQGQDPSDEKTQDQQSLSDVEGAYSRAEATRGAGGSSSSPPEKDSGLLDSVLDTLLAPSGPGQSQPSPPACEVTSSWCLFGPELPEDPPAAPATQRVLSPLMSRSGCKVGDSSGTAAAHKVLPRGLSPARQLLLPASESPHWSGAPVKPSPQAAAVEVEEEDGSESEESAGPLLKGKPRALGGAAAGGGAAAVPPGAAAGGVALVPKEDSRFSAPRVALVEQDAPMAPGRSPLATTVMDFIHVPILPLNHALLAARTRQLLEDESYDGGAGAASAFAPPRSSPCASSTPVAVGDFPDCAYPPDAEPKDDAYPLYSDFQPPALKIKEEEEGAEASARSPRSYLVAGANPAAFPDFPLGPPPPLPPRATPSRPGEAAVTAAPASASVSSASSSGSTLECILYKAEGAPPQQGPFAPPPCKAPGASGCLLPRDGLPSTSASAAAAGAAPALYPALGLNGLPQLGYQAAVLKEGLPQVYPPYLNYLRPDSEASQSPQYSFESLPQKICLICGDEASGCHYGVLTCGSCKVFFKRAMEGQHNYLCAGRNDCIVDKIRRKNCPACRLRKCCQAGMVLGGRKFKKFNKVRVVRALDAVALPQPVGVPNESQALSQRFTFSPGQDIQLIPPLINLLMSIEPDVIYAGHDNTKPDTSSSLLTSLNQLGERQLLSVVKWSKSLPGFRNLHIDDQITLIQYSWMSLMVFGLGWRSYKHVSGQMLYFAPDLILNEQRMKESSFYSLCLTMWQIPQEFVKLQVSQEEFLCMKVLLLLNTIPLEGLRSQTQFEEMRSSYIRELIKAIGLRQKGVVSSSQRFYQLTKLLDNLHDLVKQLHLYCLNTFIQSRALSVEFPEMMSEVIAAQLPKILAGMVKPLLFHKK

[3] = molecular target: T4, Amine oxidase [flavin-containing] A (Homo sapiens, UniProt P21397); type: functional
T4 sequence (P21397 whole entry): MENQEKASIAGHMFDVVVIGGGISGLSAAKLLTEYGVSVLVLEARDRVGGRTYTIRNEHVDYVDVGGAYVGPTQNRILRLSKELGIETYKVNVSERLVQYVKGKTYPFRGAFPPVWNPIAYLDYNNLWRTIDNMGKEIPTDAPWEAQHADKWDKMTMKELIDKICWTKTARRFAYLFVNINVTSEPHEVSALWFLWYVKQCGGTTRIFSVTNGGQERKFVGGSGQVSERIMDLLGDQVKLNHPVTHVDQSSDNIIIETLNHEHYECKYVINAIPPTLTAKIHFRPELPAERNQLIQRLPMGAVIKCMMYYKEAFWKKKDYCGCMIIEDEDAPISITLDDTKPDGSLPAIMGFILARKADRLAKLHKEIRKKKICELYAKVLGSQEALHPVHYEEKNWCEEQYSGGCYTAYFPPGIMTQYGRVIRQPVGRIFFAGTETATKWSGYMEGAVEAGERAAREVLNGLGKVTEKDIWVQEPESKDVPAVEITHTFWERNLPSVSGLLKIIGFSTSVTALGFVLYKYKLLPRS

[4] = molecular target: T5, Muscarinic acetylcholine receptor M2 (Homo sapiens, UniProt P08172); type: functional, cell-based
T5 sequence (P08172 whole entry): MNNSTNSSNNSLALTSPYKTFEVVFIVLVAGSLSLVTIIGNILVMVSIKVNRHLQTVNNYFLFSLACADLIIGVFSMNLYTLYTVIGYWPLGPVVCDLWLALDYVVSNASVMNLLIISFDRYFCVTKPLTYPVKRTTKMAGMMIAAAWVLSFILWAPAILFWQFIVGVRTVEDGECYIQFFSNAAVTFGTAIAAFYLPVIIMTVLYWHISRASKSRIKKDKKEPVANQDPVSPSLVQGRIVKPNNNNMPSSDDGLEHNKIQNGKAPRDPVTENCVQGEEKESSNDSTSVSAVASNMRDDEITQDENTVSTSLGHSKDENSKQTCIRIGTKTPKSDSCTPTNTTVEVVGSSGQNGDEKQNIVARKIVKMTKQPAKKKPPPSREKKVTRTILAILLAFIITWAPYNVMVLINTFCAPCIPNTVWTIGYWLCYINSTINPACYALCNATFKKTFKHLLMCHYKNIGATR

D(1A) dopamine receptor = D(1A) dopamine receptor (Homo sapiens, UniProt P21728)
[5] = molecular target: Sodium-dependent noradrenaline transporter (Homo sapiens, UniProt P23975)
Further: assay procedure not described here.

Sequence of D(1A) dopamine receptor (P21728 whole entry): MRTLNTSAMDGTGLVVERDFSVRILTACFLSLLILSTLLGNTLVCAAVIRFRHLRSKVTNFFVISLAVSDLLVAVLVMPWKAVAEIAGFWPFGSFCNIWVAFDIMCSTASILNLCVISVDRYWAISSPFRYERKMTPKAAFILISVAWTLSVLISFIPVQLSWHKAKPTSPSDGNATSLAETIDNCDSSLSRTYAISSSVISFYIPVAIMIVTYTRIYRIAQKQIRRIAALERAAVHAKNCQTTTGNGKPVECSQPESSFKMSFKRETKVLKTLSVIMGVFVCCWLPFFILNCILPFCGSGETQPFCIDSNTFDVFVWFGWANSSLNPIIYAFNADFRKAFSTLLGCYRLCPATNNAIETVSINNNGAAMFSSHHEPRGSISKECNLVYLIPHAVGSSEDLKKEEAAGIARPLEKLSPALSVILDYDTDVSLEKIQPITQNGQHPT
Sequence of Sodium-dependent noradrenaline transporter (P23975 whole entry): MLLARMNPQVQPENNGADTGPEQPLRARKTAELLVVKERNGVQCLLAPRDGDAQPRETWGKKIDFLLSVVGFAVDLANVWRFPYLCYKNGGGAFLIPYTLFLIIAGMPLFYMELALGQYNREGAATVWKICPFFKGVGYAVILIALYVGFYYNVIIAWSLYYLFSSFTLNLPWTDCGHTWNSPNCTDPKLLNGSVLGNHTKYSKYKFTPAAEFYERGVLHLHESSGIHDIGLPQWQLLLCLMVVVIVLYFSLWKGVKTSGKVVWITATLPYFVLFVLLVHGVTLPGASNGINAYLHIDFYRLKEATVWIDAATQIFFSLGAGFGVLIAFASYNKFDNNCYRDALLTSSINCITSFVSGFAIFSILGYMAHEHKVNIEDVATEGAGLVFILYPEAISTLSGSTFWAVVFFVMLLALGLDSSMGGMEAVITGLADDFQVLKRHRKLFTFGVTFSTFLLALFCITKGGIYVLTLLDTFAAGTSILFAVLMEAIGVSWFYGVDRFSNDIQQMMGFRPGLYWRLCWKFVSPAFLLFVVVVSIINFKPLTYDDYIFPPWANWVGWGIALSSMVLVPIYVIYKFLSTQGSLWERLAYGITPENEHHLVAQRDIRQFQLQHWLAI

O=C(O)COCCN1CCN(C(c2ccccc2)c2ccc(Cl)cc2)CC1 (stereo not given) [CETIRIZINE]
AC50 [1]: > 30 µM | AC50 [2]: > 30 µM | AC50 (Progesterone receptor): > 30 µM | AC50 [3]: > 10 µM

COC(=O)[C@H]1[C@H]2C[C@@H]3c4[nH]c5cc(OC)ccc5c4CCN3C[C@H]2C[C@@H](OC(=O)c2cc(OC)c(OC)c(OC)c2)[C@@H]1OC [RESERPINE]
AC50 [4]: > 10 µM | AC50 (D(1A) dopamine receptor): > 30 µM | AC50 [2]: > 30 µM | AC50 (Progesterone receptor): > 30 µM | AC50 [5]: 13.6 µM | AC50 [3]: > 30 µM

NC[C@H]1CC[C@H](C(=O)Oc2ccc(CCC(=O)O)cc2)CC1 [CETRAXATE]
AC50 [4]: > 30 µM | AC50 (D(1A) dopamine receptor): > 30 µM | AC50 [2]: > 30 µM | AC50 (Progesterone receptor): > 30 µM | AC50 [5]: > 30 µM | AC50 [3]: > 30 µM

CC(O)(CS(=O)(=O)c1ccc(F)cc1)C(=O)Nc1ccc(C#N)c(C(F)(F)F)c1 (stereo not given) [BICALUTAMIDE]
AC50 [1]: > 30 µM | AC50 [4]: > 10 µM | AC50 (D(1A) dopamine receptor): > 30 µM | AC50 [2]: > 10 µM | AC50 (Progesterone receptor): 0.46 µM | AC50 [5]: > 30 µM | AC50 [3]: > 10 µM

O=S1(=O)CCN(CN2CCS(=O)(=O)NC2)CN1 [TAUROLIDINE]
AC50 [4]: > 30 µM | AC50 (D(1A) dopamine receptor): > 30 µM | AC50 [2]: > 30 µM | AC50 (Progesterone receptor): > 30 µM | AC50 [5]: > 30 µM | AC50 [3]: > 30 µM

O=C(/C=C/c1cccc(S(=O)(=O)Nc2ccccc2)c1)NO [BELINOSTAT]
AC50 [1]: > 30 µM | AC50 (D(1A) dopamine receptor): > 30 µM | AC50 [2]: > 30 µM | AC50 (Progesterone receptor): > 30 µM | AC50 [5]: > 30 µM | AC50 [3]: > 10 µM
